According to publication PMC10607100, “Anticancer and Antiphytopathogenic Activity of Fluorinated Isatins and Their Water-Soluble Hydrazone Derivatives” (International Journal of Molecular Sciences, 2023):
Where two headings read alike, the source gives them in different places. Each block holds one compound with its values, some of them ahead of it.

Columns and labels:
[1] = tested on: five representative phytopathogens; assay: Agar-well diffusion, bactericidal activity over the panel of phytopathogens; format: cell-based; conditions: for zone of inhibition at 2000 µM: 36 h, 2 mM solutions, dependent on the test system used, read-out: inhibition zone width (mm), range over the test systems; for bactericidal activity: Table S2
Summary of the method: (§1)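 Bacteria spread on agar (BP medium; GYCa for X. campestris; pH 7.2–7.4) with 6-mm wells, each receiving 150 μL compound solution. Cultures grown at 28 °C; growth-inhibition zone width measured after 36–40 h.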

[2] = tested on: Phytophthora cactorum VKM F-985; assay: Mycelial radial growth inhibition; format: cell-based; conditions: for inhibition of growth at 1 µM / inhibition of growth at 5 µM / inhibition of growth at 15 µM / inhibition of growth / inhibition of growth at 40 µM / EC50 / inhibition of growth at 2 µM / inhibition of growth at 3 µM / inhibition of growth at 50 µM: Phytophthora cactorum; for inhibition of growth at 1 µM: 1 nmol/mL; for inhibition of growth at 1 µM / inhibition of growth at 5 µM / inhibition of growth at 15 µM / inhibition of growth / inhibition of growth at 40 µM / inhibition of growth at 2 µM / inhibition of growth at 3 µM / inhibition of growth at 50 µM: read-out: Inhibition value, I (%); for inhibition of growth at 5 µM: 5 nmol/mL; for inhibition of growth at 15 µM: 15 nmol/mL; for inhibition of growth: 27 nmol/mL; for inhibition of growth at 40 µM: 40 nmol/mL; for EC50: read-out: EC50, µg/mL at Day 5, P. cactorum; for inhibition of growth at 2 µM: 2 nmol/mL; for inhibition of growth at 3 µM: 3 nmol/mL; for inhibition of growth at 50 µM: 50 nmol/mL
Summary of the method: (§2)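 Compounds mixed into molten GPY agar at various concentrations; centre inoculated with a 5-mm mycelial plug from 10-day cultures and incubated at 27 °C. Colony diameter compared with untreated control until control plate was covered (usually 12 days); ≥4 replicates in two experiments.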

[3] = tested on: Fusarium oxysporum IBPPM 543; assay: Mycelial radial growth inhibition; format: cell-based; conditions: Fusarium oxysporum; for inhibition of growth at 1 µM: 1 nmol/mL; for inhibition of growth at 1 µM / inhibition of growth at 5 µM / inhibition of growth at 20 µM / inhibition of growth at 40 µM: read-out: Inhibition value, I (%); for inhibition of growth at 5 µM: 5 nmol/mL; for inhibition of growth at 20 µM: 20 nmol/mL; for inhibition of growth at 40 µM: 40 nmol/mL; for EC50: day 5, read-out: EC50, µg/mL at Day 5, F. oxysporum
Summary of the method: as §2

[4] = tested on: Pectobacterium atrosepticum 1043; assay: Agar-well diffusion, bactericidal activity; format: cell-based; conditions: Pectobacterium atrosepticum, 1043, 2 mM/L
Summary of the method: as §1

Micrococcus luteus B-109 = assay: Agar-well diffusion, bactericidal activity; format: cell-based; conditions: Micrococcus luteus
Summary of the method: as §1

[5] = tested on: Pseudomonas fluorescens EL-2.1; assay: Agar-well diffusion, bactericidal activity; format: cell-based; conditions: Pseudomonas fluorescens, EL2.1, 2 mM/L
Summary of the method: as §1

[6] = tested on: Pectobacterium carotovorum subsp. carotovorum MI; assay: Agar-well diffusion, bactericidal activity; format: cell-based; conditions: Pectobacterium carotovorum, 2 mM/L
Summary of the method: as §1

[7] = tested on: Xanthomonas campestris B-610; assay: Agar-well diffusion, bactericidal activity; format: cell-based; conditions: Xanthomonas campestris
Summary of the method: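 Agar-well diffusion on GYCa agar (pH 7.2–7.4) seeded with bacterial suspension; 150 μL compound solution placed in 6-mm wells. Inhibition zone width measured after 36–40 h incubation.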

[8] = 120 h, age of the fungus 5 days
[9] = 168 h, age of the fungus 7 days
[10] = 216 h, age of the fungus 9 days
[11] = IBPPM543, 72 h, age of the fungus 3 days
[12] = IBPPM543, 120 h, age of the fungus 5 days
[13] = IBPPM543, 168 h, age of the fungus 7 days
[14] = IBPPM543, 216 h, age of the fungus 9 days
[15] = average of 3 experiments, read-out: width of the inhibition zone (mm), P. atrosepticum
[16] = Table S3, read-out: Inhibition zone width (mm), not less
[17] = B109, 2 mM/L, average of 3 experiments, read-out: width of the inhibition zone (mm), M. luteus
[18] = B109, Table S3, 2 mM/L, read-out: Inhibition zone width (mm), not less
[19] = average of 3 experiments, read-out: width of the inhibition zone (mm), Ps. fluorescens
[20] = average of 3 experiments, read-out: width of the inhibition zone (mm), P. carotovorum subsp. carotovorum
[21] = B610, 2 mM/L, average of 3 experiments, read-out: width of the inhibition zone (mm), X. campestris
[22] = B610, Table S3, 2 mM/L, read-out: Inhibition zone width (mm), not less

EC50 ([2]; 120 h, day 5): 24.7 µg/mL
EC50 ([3]; IBPPM543, 120 h): 17.4 µg/mL
melting point: 165 to 166 °C
SMILES: O=C(C[n+]1ccccc1)NN=C1C(=O)N(Cc2c(F)c(F)c(F)c(F)c2F)c2ccc(F)cc21.[Cl-] [Compound 5d, 1-(2-(2-(5-Fluoro-2-oxo-1-((perfluorophenyl)methyl)indolin-3-ylidene)hydrazinyl)-2-oxoethyl)pyridin-1-ium chloride]
zone of inhibition at 2000 µM [1]: 2 to 4 mm
bactericidal activity [1]: moderate bactericidal activity
inhibition of growth at 1 µM ([2]; 72 h, age of the fungus 3 days): 15%
inhibition of growth at 5 µM ([2]; 72 h, age of the fungus 3 days): 20%
inhibition of growth at 15 µM ([2]; 72 h, age of the fungus 3 days): 26%
inhibition of growth ([2]; 72 h, age of the fungus 3 days): 28%
inhibition of growth at 40 µM ([2]; 72 h, age of the fungus 3 days): 35%
inhibition of growth at 1 µM [2, 8]: 12%
inhibition of growth at 5 µM [2, 8]: 19%
inhibition of growth at 15 µM [2, 8]: 28%
inhibition of growth [2, 8]: 32%
inhibition of growth at 40 µM [2, 8]: 43%
inhibition of growth at 1 µM [2, 9]: 10%
inhibition of growth at 5 µM [2, 9]: 16%
inhibition of growth at 15 µM [2, 9]: 23%
inhibition of growth [2, 9]: 25%
inhibition of growth at 40 µM [2, 9]: 33%
inhibition of growth at 1 µM [2, 10]: 8%
inhibition of growth at 5 µM [2, 10]: 11%
inhibition of growth at 15 µM [2, 10]: 13%
inhibition of growth [2, 10]: 22%
inhibition of growth at 40 µM [2, 10]: 29%
inhibition of growth at 1 µM [3, 11]: 9%
inhibition of growth at 5 µM [3, 11]: 33%
inhibition of growth at 20 µM [3, 11]: 35%
inhibition of growth at 40 µM [3, 11]: 49%
inhibition of growth at 1 µM [3, 12]: 10%
inhibition of growth at 5 µM [3, 12]: 24%
inhibition of growth at 20 µM [3, 12]: 37%
inhibition of growth at 40 µM [3, 12]: 54%
inhibition of growth at 1 µM [3, 13]: 10%
inhibition of growth at 5 µM [3, 13]: 23%
inhibition of growth at 20 µM [3, 13]: 32%
inhibition of growth at 40 µM [3, 13]: 41%
inhibition of growth at 1 µM [3, 14]: 0%
inhibition of growth at 5 µM [3, 14]: 16%
inhibition of growth at 20 µM [3, 14]: 18%
inhibition of growth at 40 µM [3, 14]: 36%
zone of inhibition at 2000 µM [4, 15]: 4 mm
zone of inhibition at 2000 µM [4, 16]: ≥ 4 mm
zone of inhibition at 2000 µM (Micrococcus luteus B-109; [17]): 3 mm
zone of inhibition at 2000 µM (Micrococcus luteus B-109; [18]): ≥ 3 mm
zone of inhibition at 2000 µM [5, 19]: 2 mm
zone of inhibition at 2000 µM [5, 16]: ≥ 2 mm
zone of inhibition at 2000 µM [6, 20]: 4 mm
zone of inhibition at 2000 µM [6, 16]: ≥ 4 mm
zone of inhibition at 2000 µM [7, 21]: 4 mm
zone of inhibition at 2000 µM [7, 22]: ≥ 4 mm

EC50 ([2]; 120 h, day 5): 15 µg/mL
EC50, µg/mL at Day 5, P. cactorum ([2]; day 5): 15.12 µg/mL
EC50 ([3]; IBPPM543, 120 h): 13.8 µg/mL
melting point: 180 to 182 °C
SMILES: O=C(C[n+]1ccccc1)NN=C1C(=O)N(Cc2ccccc2F)c2ccc(F)cc21.[Cl-] [Compound 5a, 1-(2-(2-(5-Fluoro-1-(2-fluorobenzyl)-2-oxoindolin-3-ylidene)hydrazinyl)-2-oxoethyl)pyridin-1-ium chloride]
zone of inhibition at 2000 µM [1]: 3 to 6 mm
bactericidal activity [1]: moderate bactericidal activity
antagonistic effect superior to that of N-cetylpyridinium chloride ([2]; 5 days of growth): 2.3 times
antagonistic effect superior to that of fludioxonil ([2]; 5 days of growth): 2.0 times
inhibition of growth at 2 µM ([2]; 72 h, age of the fungus 3 days): 26%
inhibition of growth at 3 µM ([2]; 72 h, age of the fungus 3 days): 32%
inhibition of growth ([2]; 72 h, age of the fungus 3 days): 40%
inhibition of growth at 40 µM ([2]; 72 h, age of the fungus 3 days): 47%
inhibition of growth at 50 µM ([2]; 72 h, age of the fungus 3 days): 52%
inhibition of growth at 2 µM [2, 8]: 20%
inhibition of growth at 3 µM [2, 8]: 32%
inhibition of growth [2, 8]: 44%
inhibition of growth at 40 µM [2, 8]: 53%
inhibition of growth at 50 µM [2, 8]: 62%
inhibition of growth at 2 µM [2, 9]: 15%
inhibition of growth at 3 µM [2, 9]: 28%
inhibition of growth [2, 9]: 31%
inhibition of growth at 40 µM [2, 9]: 43%
inhibition of growth at 50 µM [2, 9]: 45%
inhibition of growth at 2 µM [2, 10]: 8%
inhibition of growth at 3 µM [2, 10]: 19%
inhibition of growth [2, 10]: 25%
inhibition of growth at 40 µM [2, 10]: 36%
inhibition of growth at 50 µM [2, 10]: 38%
inhibition of growth at 1 µM [3, 11]: 34%
inhibition of growth at 5 µM [3, 11]: 39%
inhibition of growth at 20 µM [3, 11]: 41%
inhibition of growth at 40 µM [3, 11]: 52%
inhibition of growth at 1 µM [3, 12]: 25%
inhibition of growth at 5 µM [3, 12]: 31%
inhibition of growth at 20 µM [3, 12]: 45%
inhibition of growth at 40 µM [3, 12]: 54%
inhibition of growth at 1 µM [3, 13]: 20%
inhibition of growth at 5 µM [3, 13]: 23%
inhibition of growth at 20 µM [3, 13]: 42%
inhibition of growth at 40 µM [3, 13]: 51%
inhibition of growth at 1 µM [3, 14]: 7%
inhibition of growth at 5 µM [3, 14]: 18%
inhibition of growth at 20 µM [3, 14]: 23%
inhibition of growth at 40 µM [3, 14]: 36%
zone of inhibition at 2000 µM [4, 15]: 6 mm
zone of inhibition at 2000 µM [4, 16]: ≥ 6 mm
zone of inhibition at 2000 µM (Micrococcus luteus B-109; [17]): 4 mm
zone of inhibition at 2000 µM (Micrococcus luteus B-109; [18]): ≥ 4 mm
zone of inhibition at 2000 µM [5, 19]: 4 mm
zone of inhibition at 2000 µM [5, 16]: ≥ 4 mm
zone of inhibition at 2000 µM [6, 20]: 3 mm
zone of inhibition at 2000 µM [6, 16]: ≥ 3 mm
zone of inhibition at 2000 µM [7, 21]: 3.5 mm
zone of inhibition at 2000 µM [7, 22]: ≥ 3 mm
